Data published in ChEMBL document CHEMBL4507291 (2021).

Columns and labels:
[1] = target: Acetylcholine receptor subunit alpha (Homo sapiens) (UniProt P02708); test: Inhibition of Nicotinic Acetylcholine D1, Bungarotoxin at 10 µM in the Eurofins-Panlabs radioligand binding assay (Eurofins_assay_258700); details: Compound concentration 10.0 uM
[2] = target: Cholecystokinin receptor type A (Homo sapiens) (UniProt P32238); test: Inhibition of Cholecystokinin CCK1 (CCKA) at 10 µM in the Eurofins-Panlabs radioligand binding assay (Eurofins_assay_218020); details: Compound concentration 10.0 uM
[3] = target: T1, Aurora kinase C (Homo sapiens) (UniProt Q9UQB9); test: AURKC (Aurora C) Kinase screen; details: Compound concentration 1.0 uM
T1 sequence (whole entry): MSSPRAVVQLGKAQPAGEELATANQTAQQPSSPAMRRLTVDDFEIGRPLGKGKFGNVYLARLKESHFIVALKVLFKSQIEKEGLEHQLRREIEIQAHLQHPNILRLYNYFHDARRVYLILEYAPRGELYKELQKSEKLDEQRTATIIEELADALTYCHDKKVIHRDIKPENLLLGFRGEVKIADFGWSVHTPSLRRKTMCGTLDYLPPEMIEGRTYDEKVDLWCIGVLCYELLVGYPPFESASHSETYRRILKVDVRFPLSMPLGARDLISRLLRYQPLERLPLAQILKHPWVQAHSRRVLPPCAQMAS

[4] = target: Tyrosine-protein kinase receptor UFO (Homo sapiens) (UniProt P30530); test: AXL Kinase screen; details: Compound concentration 1.0 uM
[5] = target: Calcium/calmodulin-dependent protein kinase type 1 (Homo sapiens) (UniProt Q14012); test: CAMK1 (CaMK1) Kinase screen; details: Compound concentration 1.0 uM
[6] = target: G protein-coupled receptor kinase 4 (Homo sapiens) (UniProt P32298); test: GRK4 Kinase screen; details: Compound concentration 1.0 uM
[7] = target: T2, Rhodopsin kinase GRK7 (Homo sapiens) (UniProt Q8WTQ7); test: GRK7 Kinase screen; details: Compound concentration 1.0 uM
T2 sequence (whole entry): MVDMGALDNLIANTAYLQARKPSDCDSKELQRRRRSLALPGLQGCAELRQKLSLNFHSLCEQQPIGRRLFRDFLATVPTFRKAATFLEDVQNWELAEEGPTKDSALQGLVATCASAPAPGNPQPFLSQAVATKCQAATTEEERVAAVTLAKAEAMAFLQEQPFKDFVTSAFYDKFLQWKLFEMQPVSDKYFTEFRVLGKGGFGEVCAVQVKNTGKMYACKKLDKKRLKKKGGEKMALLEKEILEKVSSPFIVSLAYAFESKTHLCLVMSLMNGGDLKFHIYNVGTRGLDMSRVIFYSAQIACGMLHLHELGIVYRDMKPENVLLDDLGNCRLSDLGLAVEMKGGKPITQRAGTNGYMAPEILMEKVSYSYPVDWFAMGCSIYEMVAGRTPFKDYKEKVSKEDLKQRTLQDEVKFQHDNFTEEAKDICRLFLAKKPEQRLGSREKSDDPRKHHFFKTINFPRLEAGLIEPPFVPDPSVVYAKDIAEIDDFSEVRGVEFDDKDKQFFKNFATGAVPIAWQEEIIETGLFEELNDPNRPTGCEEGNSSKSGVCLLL

[8] = target: LIM domain kinase 2 (Homo sapiens) (UniProt P53671); test: LIMK2 Kinase screen; details: Compound concentration 1.0 uM
[9] = target: Mitogen-activated protein kinase 11 (Homo sapiens) (UniProt Q15759); test: MAPK11 (p38 beta) Kinase screen; details: Compound concentration 1.0 uM
[10] = target: MAP/microtubule affinity-regulating kinase 3 (Homo sapiens) (UniProt P27448); test: MARK3 Kinase screen; details: Compound concentration 1.0 uM
[11] = target: MAP kinase-interacting serine/threonine-protein kinase 2 (Homo sapiens) (UniProt Q9HBH9); test: MKNK2 (MNK2) Kinase screen; details: Compound concentration 1.0 uM
[12] = target: PI3-kinase p110-alpha/p85-alpha (Homo sapiens) (UniProt P27986+P42336); test: PIK3CA/PIK3R1 (p110 alpha/p85 alpha) Kinase screen; type: protein-complex assay; details: Compound concentration 1.0 uM
[13] = target: T3, cGMP-dependent protein kinase 2 (Homo sapiens) (UniProt Q13237); test: PRKG2 (PKG2) Kinase screen; details: Compound concentration 1.0 uM
T3 sequence (whole entry): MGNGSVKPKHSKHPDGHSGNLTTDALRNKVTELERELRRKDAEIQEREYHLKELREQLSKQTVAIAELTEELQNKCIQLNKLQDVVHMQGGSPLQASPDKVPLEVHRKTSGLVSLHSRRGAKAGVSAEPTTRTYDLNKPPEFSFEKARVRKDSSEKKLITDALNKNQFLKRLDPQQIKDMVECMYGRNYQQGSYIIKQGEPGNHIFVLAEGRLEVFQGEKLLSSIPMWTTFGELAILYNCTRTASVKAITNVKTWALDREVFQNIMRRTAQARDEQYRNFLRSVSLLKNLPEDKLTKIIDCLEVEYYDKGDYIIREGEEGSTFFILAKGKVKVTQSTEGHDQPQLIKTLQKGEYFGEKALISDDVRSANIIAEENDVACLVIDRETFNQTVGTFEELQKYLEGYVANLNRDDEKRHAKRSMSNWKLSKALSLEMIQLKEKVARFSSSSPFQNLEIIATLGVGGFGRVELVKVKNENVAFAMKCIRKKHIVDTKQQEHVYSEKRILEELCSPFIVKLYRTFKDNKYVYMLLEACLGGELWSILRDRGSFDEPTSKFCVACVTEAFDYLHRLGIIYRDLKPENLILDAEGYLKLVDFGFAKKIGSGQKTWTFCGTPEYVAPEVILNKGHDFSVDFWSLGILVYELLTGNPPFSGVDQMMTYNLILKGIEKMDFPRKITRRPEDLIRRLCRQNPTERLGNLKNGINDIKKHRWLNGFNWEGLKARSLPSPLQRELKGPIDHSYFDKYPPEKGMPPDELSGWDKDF

[14] = target: Activated CDC42 kinase 1 (Homo sapiens) (UniProt Q07912); test: TNK2 (ACK) Kinase screen; details: Compound concentration 1.0 uM
[15] = target: Melanin-concentrating hormone receptor 1 (Homo sapiens) (UniProt Q99705); test: Melanin-Concentrating Hormone MCH1 (SLC1) Eurofins-Panlabs radioligand binding assay; set-up: ligand concentration 0.05 nM; details: Compound concentration 10.0 uM
[16] = target: Histamine H1 receptor (Homo sapiens) (UniProt P35367); details: Compound concentration 10.0 uM
[17] = target: Gastrin/cholecystokinin type B receptor (Homo sapiens) (UniProt P32239); details: Compound concentration 10.0 uM
[18] = target: Beta-1 adrenergic receptor (Homo sapiens) (UniProt P08588); details: Compound concentration 10.0 uM

Measured: inhibition

Chain of Histamine H1 receptor (Homo sapiens) (P35367 whole entry): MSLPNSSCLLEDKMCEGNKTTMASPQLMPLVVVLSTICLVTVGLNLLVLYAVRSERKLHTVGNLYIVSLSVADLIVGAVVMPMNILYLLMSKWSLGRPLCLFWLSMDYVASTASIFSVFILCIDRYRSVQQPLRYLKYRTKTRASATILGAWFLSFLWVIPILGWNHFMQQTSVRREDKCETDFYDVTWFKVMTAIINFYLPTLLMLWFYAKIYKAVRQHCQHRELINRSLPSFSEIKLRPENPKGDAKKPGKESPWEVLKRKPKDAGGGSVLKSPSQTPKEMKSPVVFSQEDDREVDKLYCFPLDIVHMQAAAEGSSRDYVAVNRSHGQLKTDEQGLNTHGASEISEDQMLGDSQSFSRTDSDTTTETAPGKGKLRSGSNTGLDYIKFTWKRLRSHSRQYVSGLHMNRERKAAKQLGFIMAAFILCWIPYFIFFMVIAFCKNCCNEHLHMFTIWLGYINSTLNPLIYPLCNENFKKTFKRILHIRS
Chain of LIM domain kinase 2 (Homo sapiens) (P53671 whole entry, looked up, the tested form may be a part): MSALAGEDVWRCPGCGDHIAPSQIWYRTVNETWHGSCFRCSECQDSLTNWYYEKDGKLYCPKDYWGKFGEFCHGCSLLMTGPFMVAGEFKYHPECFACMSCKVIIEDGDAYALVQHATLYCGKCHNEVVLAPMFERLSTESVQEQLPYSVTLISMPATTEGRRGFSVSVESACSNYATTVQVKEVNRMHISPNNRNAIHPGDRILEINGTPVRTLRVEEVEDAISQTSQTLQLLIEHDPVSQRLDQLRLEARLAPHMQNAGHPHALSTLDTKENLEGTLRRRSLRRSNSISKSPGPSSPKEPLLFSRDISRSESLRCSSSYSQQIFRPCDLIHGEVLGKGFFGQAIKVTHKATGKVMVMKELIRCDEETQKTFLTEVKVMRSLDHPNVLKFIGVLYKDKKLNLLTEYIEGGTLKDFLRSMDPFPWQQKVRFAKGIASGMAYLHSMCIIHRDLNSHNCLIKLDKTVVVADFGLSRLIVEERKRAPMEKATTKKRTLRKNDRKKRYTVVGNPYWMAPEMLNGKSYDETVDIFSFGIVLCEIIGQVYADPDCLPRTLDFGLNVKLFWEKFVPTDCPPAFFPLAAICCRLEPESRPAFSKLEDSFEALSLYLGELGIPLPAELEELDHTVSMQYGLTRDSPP
Chain of Gastrin/cholecystokinin type B receptor (Homo sapiens) (P32239 whole entry): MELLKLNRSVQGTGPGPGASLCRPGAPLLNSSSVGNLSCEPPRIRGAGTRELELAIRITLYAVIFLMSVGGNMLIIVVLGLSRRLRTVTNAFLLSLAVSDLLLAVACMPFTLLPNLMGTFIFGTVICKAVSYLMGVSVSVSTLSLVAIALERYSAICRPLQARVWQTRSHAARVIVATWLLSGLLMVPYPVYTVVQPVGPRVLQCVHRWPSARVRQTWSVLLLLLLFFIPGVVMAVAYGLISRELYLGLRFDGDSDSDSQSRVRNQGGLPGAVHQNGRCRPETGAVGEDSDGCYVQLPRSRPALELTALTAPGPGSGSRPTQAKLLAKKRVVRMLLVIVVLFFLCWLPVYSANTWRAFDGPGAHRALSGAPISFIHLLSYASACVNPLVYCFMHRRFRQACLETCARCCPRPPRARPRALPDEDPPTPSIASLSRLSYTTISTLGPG
Chain of MAP/microtubule affinity-regulating kinase 3 (Homo sapiens) (P27448 whole entry, looked up): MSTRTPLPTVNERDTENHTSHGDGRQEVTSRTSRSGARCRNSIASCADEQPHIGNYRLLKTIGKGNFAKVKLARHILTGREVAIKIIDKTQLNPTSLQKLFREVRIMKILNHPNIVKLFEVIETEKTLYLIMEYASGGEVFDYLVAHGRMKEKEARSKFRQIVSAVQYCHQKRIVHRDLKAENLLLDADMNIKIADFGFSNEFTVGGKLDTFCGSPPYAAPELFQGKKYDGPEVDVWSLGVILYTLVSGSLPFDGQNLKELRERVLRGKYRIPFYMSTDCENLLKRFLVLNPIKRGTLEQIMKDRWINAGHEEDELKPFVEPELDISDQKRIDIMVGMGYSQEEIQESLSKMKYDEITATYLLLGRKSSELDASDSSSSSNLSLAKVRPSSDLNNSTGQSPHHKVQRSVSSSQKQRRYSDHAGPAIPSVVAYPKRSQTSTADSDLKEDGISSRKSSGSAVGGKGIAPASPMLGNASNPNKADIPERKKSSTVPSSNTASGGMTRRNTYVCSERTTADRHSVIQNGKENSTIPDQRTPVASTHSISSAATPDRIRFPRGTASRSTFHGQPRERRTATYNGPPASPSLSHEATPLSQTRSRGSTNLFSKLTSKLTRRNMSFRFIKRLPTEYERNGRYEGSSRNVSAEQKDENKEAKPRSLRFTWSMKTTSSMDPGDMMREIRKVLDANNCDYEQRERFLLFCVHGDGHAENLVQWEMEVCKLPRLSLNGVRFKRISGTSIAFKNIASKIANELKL
Chain of Cholecystokinin receptor type A (Homo sapiens) (P32238 whole entry): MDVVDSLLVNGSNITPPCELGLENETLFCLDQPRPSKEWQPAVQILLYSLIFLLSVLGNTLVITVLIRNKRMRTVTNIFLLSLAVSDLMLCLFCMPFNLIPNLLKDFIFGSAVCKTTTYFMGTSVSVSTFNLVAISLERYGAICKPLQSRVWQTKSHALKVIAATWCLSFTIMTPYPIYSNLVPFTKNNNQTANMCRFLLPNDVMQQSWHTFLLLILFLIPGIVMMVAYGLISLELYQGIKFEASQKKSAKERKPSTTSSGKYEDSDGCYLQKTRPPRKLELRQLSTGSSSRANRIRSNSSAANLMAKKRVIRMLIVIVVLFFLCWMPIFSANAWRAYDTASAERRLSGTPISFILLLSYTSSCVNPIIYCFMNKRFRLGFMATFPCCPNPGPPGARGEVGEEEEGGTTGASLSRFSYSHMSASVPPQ
Chain of MAP kinase-interacting serine/threonine-protein kinase 2 (Homo sapiens) (Q9HBH9 whole entry, looked up): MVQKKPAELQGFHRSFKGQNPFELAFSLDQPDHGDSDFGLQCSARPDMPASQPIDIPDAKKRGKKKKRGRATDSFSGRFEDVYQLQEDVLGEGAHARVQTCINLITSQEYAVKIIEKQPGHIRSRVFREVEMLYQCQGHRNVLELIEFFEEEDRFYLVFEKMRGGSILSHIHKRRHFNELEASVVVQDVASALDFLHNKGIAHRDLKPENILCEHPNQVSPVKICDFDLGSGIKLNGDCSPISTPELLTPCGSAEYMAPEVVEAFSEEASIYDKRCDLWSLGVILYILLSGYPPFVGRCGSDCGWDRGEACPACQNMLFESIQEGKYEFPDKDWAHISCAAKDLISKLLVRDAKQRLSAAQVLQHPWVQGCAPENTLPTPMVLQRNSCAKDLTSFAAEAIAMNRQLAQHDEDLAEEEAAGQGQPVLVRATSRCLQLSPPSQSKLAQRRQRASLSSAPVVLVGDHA
Chain of Mitogen-activated protein kinase 11 (Homo sapiens) (Q15759 whole entry): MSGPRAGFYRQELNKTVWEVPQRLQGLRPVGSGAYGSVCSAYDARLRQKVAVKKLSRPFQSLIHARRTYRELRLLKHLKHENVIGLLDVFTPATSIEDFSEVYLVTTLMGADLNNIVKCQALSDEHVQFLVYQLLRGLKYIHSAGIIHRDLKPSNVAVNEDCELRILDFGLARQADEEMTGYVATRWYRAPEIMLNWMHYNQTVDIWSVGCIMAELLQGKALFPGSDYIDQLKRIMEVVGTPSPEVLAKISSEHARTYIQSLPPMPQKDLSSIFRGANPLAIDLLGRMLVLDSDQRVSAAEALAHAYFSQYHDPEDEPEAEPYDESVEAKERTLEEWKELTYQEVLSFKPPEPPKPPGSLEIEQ
Chain of Calcium/calmodulin-dependent protein kinase type 1 (Homo sapiens) (Q14012 whole entry, looked up): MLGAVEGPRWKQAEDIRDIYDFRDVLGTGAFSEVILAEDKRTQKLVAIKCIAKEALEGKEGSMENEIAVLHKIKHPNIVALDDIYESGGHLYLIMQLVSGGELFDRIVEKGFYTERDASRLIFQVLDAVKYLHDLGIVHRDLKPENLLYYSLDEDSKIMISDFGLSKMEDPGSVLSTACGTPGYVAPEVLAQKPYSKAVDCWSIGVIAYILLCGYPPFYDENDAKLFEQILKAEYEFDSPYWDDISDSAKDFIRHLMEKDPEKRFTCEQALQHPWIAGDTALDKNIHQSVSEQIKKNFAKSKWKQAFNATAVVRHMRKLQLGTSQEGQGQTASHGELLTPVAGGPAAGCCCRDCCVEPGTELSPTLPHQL
Chain of Beta-1 adrenergic receptor (Homo sapiens) (P08588 whole entry, looked up): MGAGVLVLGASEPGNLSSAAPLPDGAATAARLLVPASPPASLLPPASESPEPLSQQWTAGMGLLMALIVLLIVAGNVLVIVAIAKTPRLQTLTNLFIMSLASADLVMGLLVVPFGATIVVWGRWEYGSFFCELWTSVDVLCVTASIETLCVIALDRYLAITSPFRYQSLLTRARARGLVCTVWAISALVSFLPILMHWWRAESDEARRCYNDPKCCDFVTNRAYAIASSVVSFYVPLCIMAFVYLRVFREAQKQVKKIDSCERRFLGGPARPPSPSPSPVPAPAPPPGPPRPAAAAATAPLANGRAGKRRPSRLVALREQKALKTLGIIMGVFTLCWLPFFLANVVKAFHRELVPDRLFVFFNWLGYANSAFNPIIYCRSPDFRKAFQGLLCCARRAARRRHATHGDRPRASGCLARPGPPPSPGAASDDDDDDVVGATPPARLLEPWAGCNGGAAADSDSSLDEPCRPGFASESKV
Chain of Melanin-concentrating hormone receptor 1 (Homo sapiens) (Q99705 whole entry): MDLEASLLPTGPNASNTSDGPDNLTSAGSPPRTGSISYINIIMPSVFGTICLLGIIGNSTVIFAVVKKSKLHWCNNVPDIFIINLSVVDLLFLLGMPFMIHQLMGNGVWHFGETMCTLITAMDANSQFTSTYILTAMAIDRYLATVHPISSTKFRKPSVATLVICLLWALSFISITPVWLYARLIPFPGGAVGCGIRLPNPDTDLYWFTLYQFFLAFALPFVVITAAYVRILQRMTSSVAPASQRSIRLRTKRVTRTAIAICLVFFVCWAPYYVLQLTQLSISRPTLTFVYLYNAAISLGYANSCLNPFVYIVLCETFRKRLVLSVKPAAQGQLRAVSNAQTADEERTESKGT

C[C@@H]1CN(c2cc(-c3n[nH]c4ccc(OC5(C)CC5)cc34)ncn2)C[C@H](C)O1 [MLi-2]
inactive: [1] 6% | [2] -4% | [3] 1.85% | [4] 4.79% | [5] -4.05% | [6] 6.02% | [7] 4.4% | [8] 0.642% | [9] 13% | [10] 1.57% | [11] 9.35% | [12] 3.21% | [13] 1.23% | [14] 22.9% | [15] 1% | [16] -4% | [17] 15%

C[C@@H]1CN(c2cc(-c3nn(C)c4ccc(OC5(C)CC5)cc34)ncn2)C[C@H](C)O1 [MLi-2-NC]
inactive: [18] 5.75%
